Values after ≈ are worked out from the molar mass of the structure shown.

Tested on in one series: not listed separately
Briefly: Water solubility of the fredericamycin derivatives. It is filed as physicochemical. To be noted: 0.9% NaCl solution, pH 7. The source says:
The water solubility of the various fredericamycin derivatives can be determined in a 0.9% NaCl solution with a pH of 7.
As to `COC1=CC(=O)c2c(O)c3c(c(O)c2C1=O)C(=O)C1(CCc2cc4cc(C(O)C(O)C(O)C(C)O)[nH]c(=O)c4c(O)c21)C3=O` [Example 2, Tri-potassium-1-desoxy-5-C-[(8R)-4′,9,9′-trihydroxy-6′-methoxy-1,1′,3′,5′,8′-pentaoxo-1,1′,2,3′,5′,6,7,8′-octahydrospiro[cyclopenta[g]isoquinoline-8,2′-cyclopenta[b]-naphthalene]-3-yl]pentitol], the water solubility result is reported as “soluble”. The same measure, in the same setting: with `COC1=CC(=O)c2c(O)c3c(c(O)c2C1=O)C(=O)[C@]1(CCc2cc4cc(C=O)[nH]c(=O)c4c(O)c21)C3=O` [Example 3, (8S)-4′,9,9′-trihydroxy-6′-methoxy-1,1′,3′,5′,8′-pentaoxo-1,1′,2,3′,5′,6,7,8′-octahydrospiro[cyclopenta[g]isoquinoline-8,2′-cyclopenta[b]-naphthalene]-3-carbaldehyde] the entry was “dissolve very well”; with `COC1=CC(=O)c2c(O)c3c(c(O)c2C1=O)C(=O)[C@]1(CCc2cc4cc(/C=N/NC(=O)C[n+]5ccccc5)[nH]c(=O)c4c(O)c21)C3=O.[Cl-]` [Example 5, 1-[2-Oxo-2-((2E)-2-{[(8S)-4′,9,9′-trihydroxy-6′-methoxy-1,1′,3′,5′,8′-pentaoxo-1,1′,2,3′,5′,6,7,8′-octahydrospiro[cyclopenta[g]isoquinoline-8,2′-cyclopenta[b]-naphthalene]-3-yl]methylene}hydrazino)-ethyl]pyridinium chloride], “sufficiently and markedly better soluble than fredericamycin”; with `CON=Cc1cc2cc3c(c(O)c2c(=O)[nH]1)[C@@]1(CC3)C(=O)c2c(O)c3c(c(O)c2C1=O)C(=O)C(OC)=CC3=O` [Example 7, (8S)-4′,9,9′-trihydroxy-6′-methoxy-1,1′,3′,5′,8′-pentaoxo-1,1′,2,3′,5′,6,7,8′-octahydrospiro[cyclopenta[g]isoquinoline-8,2′-cyclopenta[b]-naphthalene]-3-carbaldehyde-O-methyloxime], “sufficiently and markedly better soluble than fredericamycin”. Consider `COC1=CC(=O)c2c(O)c3c(c(O)c2C1=O)C(=O)[C@]1(CCc2cc4cc(C(=O)O)[nH]c(=O)c4c(O)c21)C3=O` [Example 11, (8S)-4′,9,9′-trihydroxy-6′-methoxy-1,1′,3′,5′,8′-pentaoxo-1,1′,2,3′,5′,6,7,8′-octahydrospiro[cyclopenta[g]isoquinoline-8,2′-cyclopenta[b]-naphthalene]-3-carboxylic acid], for which the water solubility entry was “sufficiently and markedly better soluble than fredericamycin”.

As to `COC1=CC(=O)c2c(O)c3c(c(O)c2C1=O)C(=O)[C@]1(CCc2cc4cc(C(=O)[O-])[nH]c(=O)c4c(O)c21)C3=O.[K+]` [Example 12, Potassium(8S)-4′,9,9′-trihydroxy-6′-methoxy-1,1′,3′,5′,8′-pentaoxo-1,1′,2,3′,5′,6,7,8′-octahydrospiro[cyclopenta[g]isoquinoline-8,2′-cyclopenta[b]-naphthalene]-3-carboxylate], the water solubility result is “sufficiently and markedly better soluble than fredericamycin”. Regarding “(8S)-4′,9,9′-trihydroxy-6′-methoxy-1,1′,3′,5′,8′-pentaoxo-1,1′,2,3′,5′,6,7,8′-octahydrospiro[cyclopenta[g]isoquinoline-8,2′-cyclopenta[b]-naphthalene]-1,1′,3′,5′,8′(2H)-pentone [Example 10]”, the water solubility entry is listed as “soluble”. Take “(8S)-4′,9,9′-trihydroxy-6′-methoxy-1,1′,3′,5′,8′-pentaoxo-1,1′,2,3′,5′,6,7,8′-octahydrospiro[cyclopenta[g]isoquinoline-8,2′-cyclopenta[b]-naphthalene]-3-carbaldehyde oxime [Example 6]”: the water solubility entry is listed as “dissolves well”.

For the compound “(8S)-5-bromo-4′,9,9′-trihydroxy-6′-methoxy-1,1′,3′,5′,8′-pentaoxo-1,1′,2,3′,5′,6,7,8′-octahydrospiro[cyclopenta[g]isoquinoline-8,2′-cyclopenta[b]-naphthalene]-1,1′,3′,5′,8′(2H)-pentone [Example 13]”, the water solubility result is listed as “soluble”.

The next series deals with 12 cancer cell lines: LCL (H460, lung), MACL (MCF7, breast), LXFL (52L, lung), LXFA (629L, lung), MEXF (462NL, melanoma), MEXF (514L, melanoma), MAXF (401NL …). Briefly: Biological activity against 12 cancer cell lines, efficacy (IC70) averaged over all cell lines.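 Further: panel also covers renal lines RXF 944L and RXF 486L, uterine UXF 1138L, and prostate lines PRXF PC3M and PRXF 22RV1.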 The format is cell-based. The note with it: averaged over all 12 cancer cell lines, 5 test concentrations.
Method: (§1) LCL (H460, lung), MACL (MCF7, breast), LXFL (52L, lung), LXFA (629L, lung), MEXF (462NL, melanoma), MEXF (514L, melanoma), MAXF (401NL, breast), RXF (944L, renal), RXF (486L, renal), UXF (1138L, uterus), PRXF (PC3M, prostate), PRXF (22RV1).
Regarding `COC1=CC(=O)c2c(O)c3c(c(O)c2C1=O)C(=O)[C@@]1(CCc2cc4cc(C(O)C(O)C(O)C(C)O)[nH]c(=O)c4c(O)c21)C3=O` (stereo partly drawn) [Example 1, 1-Desoxy-5-C-[(8R)-4′,9,9′-trihydroxy-6′-methoxy-1,1′,3′,5′,8′-pentaoxo-1,1′,2,3′,5′,6,7,8′-octahydrospiro[cyclopenta[g]isoquinoline-8,2′-cyclopenta[b]-naphalene]-3-yl]pentitol], the IC70 was 0.1130 mg/L (≈ 0.186 µM). The same measure, in the same setting: then `C/C=C/C=C/c1cc2cc3c(c(O)c2c(=O)[nH]1)[C@@]1(CC3)C(=O)c2c(O)c3c(c(O)c2C1=O)C(=O)C(NC)=CC3=O` [Example 265], with 0.1330 mg/L (≈ 0.247 µM).

`N.N.[Cl][Pt][Cl]` [cisplatin]: the IC70 came to 37.1020 mg/L.

“(8S)-5-bromo-4′,9,9′-trihydroxy-6′-methoxy-1,1′,3′,5′,8′-pentaoxo-1,1′,2,3′,5′,6,7,8′-octahydrospiro[cyclopenta[g]isoquinoline-8,2′-cyclopenta[b]-naphthalene]-1,1′,3′,5′,8′(2H)-pentone [Example 13]” showed an IC70 of 0.0050 mg/L.

Consider “(8S)-5-chloro-4′,6′,9′-trimethoxy-2-methoxy-3-[(1E,3E)-penta-1,3-dienyl]-6,7-dihydrospiro[cyclopenta[g]isoquinoline-8,2′-cyclopenta[b]-naphthalene]-1,1′,3′,5′,8′(2H)-pentone [Example 22]”, for which the IC70 worked out at 0.0080 mg/L. This IC70 is about 1.6-fold higher than that of the compound before.

Tested on in the next series: not listed separately
The series is described as above. It is filed as cell-based. To be noted: averaged over all 12 cancer cell lines, 5 test concentrations.
Method: as §1
The compound `CCCCCCON=Cc1cc2c(I)c3c(c(O)c2c(=O)[nH]1)[C@@]1(CC3)C(=O)c2c(O)c3c(c(O)c2C1=O)C(=O)C(OC)=CC3=O` [Example 230, (8S)-5-iodo-4′,9,9′-trihydroxy-6′-methoxy-1,1′,3′,5′,8′-pentaoxo-1,1′,2,3′,5′,6,7,8′-octahydrospiro[cyclopenta[g]isoquinoline-8,2′-cyclopenta[b]-naphthalene]-3-carbaldehyde O-n-hexyloxime] came in with an IC70 of 0.091 mg/L (≈ 0.125 µM). Still for that read-out and setting: then `COC1=CC(=O)c2c(O)c3c(c(O)c2C1=O)C(=O)[C@]1(CCc2c1c(O)c1c(=O)[nH]c(C=NOCc4ccc(Cl)cc4)cc1c2I)C3=O` [Example 232, (8S)-5-iodo-4′,9,9′-trihydroxy-6′-methoxy-1,1′,3′,5′,8′-pentaoxo-1,1′,2,3′,5′,6,7,8′-octahydrospiro[cyclopenta[g]isoquinoline-8,2′-cyclopenta[b]-naphthalene]-3-carbaldehyde O-(4-chlorobenzyl)oxime], with 0.317 mg/L (≈ 0.413 µM). For `COC1=CC(=O)c2c(O)c3c(c(O)c2C1=O)C(=O)[C@]1(CCc2c1c(O)c1c(=O)[nH]c(C=NOCc4cccc(F)c4)cc1c2I)C3=O` [Example 233, (8S)-5-iodo-4′,9,9′-trihydroxy-6′-methoxy-1,1′,3′,5′,8′-pentaoxo-1,1′,2,3′,5′,6,7,8′-octahydrospiro[cyclopenta[g]isoquinoline-8,2′-cyclopenta[b]-naphthalene]-3-carbaldehyde O-(3-fluorobenzyl)oxime], the IC70 is 0.1 mg/L (≈ 0.133 µM). The same measure, in the same setting: then `COC1=CC(=O)c2c(O)c3c(c(O)c2C1=O)C(=O)[C@]1(CCc2c1c(O)c1c(=O)[nH]c(C=NOCc4ccccc4)cc1c2I)C3=O` [Example 234, (8S)-5-iodo-4′,9,9′-trihydroxy-6′-methoxy-1,1′,3′,5′,8′-pentaoxo-1,1′,2,3′,5′,6,7,8′-octahydrospiro[cyclopenta[g]isoquinoline-8,2′-cyclopenta[b]-naphthalene]-3-carbaldehyde O-benzyloxime], with 0.052 mg/L (≈ 0.071 µM); and `COC1=CC(=O)c2c(O)c3c(c(O)c2C1=O)C(=O)[C@]1(CCc2c1c(O)c1c(=O)[nH]c(C=NOCCN4CCOCC4)cc1c2I)C3=O` [Example 235, (8S)-5-iodo-4′,9,9′-trihydroxy-6′-methoxy-1,1′,3′,5′,8′-pentaoxo-1,1′,2,3′,5′,6,7,8′-octahydrospiro[cyclopenta[g]isoquinoline-8,2′-cyclopenta[b]-naphthalene]-3-carbaldehyde O-[2-morpholine-4-yl-ethyl)oxime], with 0.081 mg/L (≈ 0.107 µM). With `CON=Cc1cc2c(I)c3c(c(O)c2c(=O)[nH]1)[C@@]1(CC3)C(=O)c2c(O)c3c(c(O)c2C1=O)C(=O)C(OC)=CC3=O` [Example 236, (8S)-5-iodo-4′,9,9′-trihydroxy-6′-methoxy-1,1′,3′,5′,8′-pentaoxo-1,1′,2,3′,5′,6,7,8′-octahydrospiro[cyclopenta[g]isoquinoline-8,2′-cyclopenta[b]-naphthalene]-3-carbaldehyde O-methyloxime], the IC70 was found to be 0.121 mg/L (≈ 0.184 µM). `COc1cccc2c1C(=O)c1c(O)c3c(c(O)c1C2=O)C[C@@](O)(C(=O)CO)C[C@@H]3O[C@H]1C[C@H](N)[C@H](O)[C@H](C)O1` [adriamycin] returned a 70% effect concentration (IC70) of 0.021 mg/L (≈ 0.0386 µM). Still for that read-out and setting: with `C/C=C/C=C/c1cc2cc3c(c(O)c2c(=O)[nH]1)C1(CC3)C(=O)c2c(O)c3c(c(O)c2C1=O)C(=O)C(OC)=CC3=O` (centres unmarked) [fredericamycin, fredericamycin A] the figure was 0.279 mg/L (≈ 0.517 µM).

Tested on in a further series: not listed separately
Briefly: Water solubility of the fredericamycin derivatives. The format is physicochemical. To be noted: statement in the synthesis text, medium not given.
As for `COC1=CC(=O)c2c(O)c3c(c(O)c2C1=O)C(=O)C1(CCc2cc4cc(C(O)C(O)C(O)C(C)O)[nH]c(=O)c4c(O)c21)C3=O` [Example 2, Tri-potassium-1-desoxy-5-C-[(8R)-4′,9,9′-trihydroxy-6′-methoxy-1,1′,3′,5′,8′-pentaoxo-1,1′,2,3′,5′,6,7,8′-octahydrospiro[cyclopenta[g]isoquinoline-8,2′-cyclopenta[b]-naphthalene]-3-yl]pentitol], the “water solubility compared to fredericamycin (1)” value is “significantly higher water solubility”.

Source of the values: patent US8247424B2, “Fredericamycin derivatives” (Zentopharm GmbH, priority 2002, dated 2012).
